Here are results for 20 compounds from US20250177582A1, “HIGH-AFFINITY LIGANDS OF FIBROBLAST ACTIVATION PROTEIN FOR TARGETED DELIVERY APPLICATIONS” (PHILOCHEM AG, priority 2022, published 2025).

Entries after “also recorded” stand apart in the source; their conditions may differ. Where two headings read alike, the source gives them in different places.

The target in one assay is human FAP (Homo sapiens (Human), UniProt Q12884). Description: Inhibition assay of FAP (fluorogenic substrate Z-Gly-Pro-AMC). It is filed as biochemical. To be noted: for FAP binding relative to the parent compound (in words): effect of arginine-based tail / of removing furan as group W; for FAP inhibition potency (in words): SAR comparison. The procedure: (§1) Inhibition assay of FAP. The compounds were precisely weighed (range between […]) on a micro-scale (HuberLab, Sartorius QUINTIX35-1S) and dissolved in DMSO to prepare stock solutions at 1 mM. Stock solutions were further diluted with FAP activation buffer (50 mM Tris, 100 mM NaCl, 1 mM EDTA, pH=7.4) to a final DMSO concentration of 10% v/v. 10 μL of each inhibitor were serially diluted in a 384 well plate (grenier-bio one, PS, F-bottom, Black, non-binding) with 10 μL of 10% DMSO FAP buffer (1:1 dilution). FAP (human and murine) was diluted to the desired concentration with FAP activation buffer and added to the serial dilution of inhibitor (10 μL for each well). Each protein-inhibitor solution was incubated for 30 minutes at room temperature. Each measurement was performed with an enzyme concentration (FAP) lower than the expected IC50. A 60 μM solution of substrate (Z-Gly-Pro-AMC) in FAP activation buffer (<1% DMSO) was added to the plate (10 μL for each well). The reaction was incubated from 1 minute to 48 hours (see FIG. 2) at room temperature (22° C.-25° C.). The emission was read at 465 nm (excitation wavelength 360 nm) for 40 μs by Tecan Spark (s.n. 1808004082). The following controls were added to each row: positive control (no inhibitor control, 10 μL of 10% DMSO FAP buffer+10 μL of FAP solution+10 μL of substrate solution), negative control (no protein control, 10 μL of 10% DMSO FAP buffer+10 μL of FAP activation buffer+10 μL of substrate solution).
(§2) Normalization of values: The “% of FAP activity” can be calculated with the following formula:
The concentration of substrate (Z-Gly-Pro-AMC) was kept constant=20 μM. Dashed lines corresponds to sets of data with unstable fitting. […] Error bars display SEM.
(§3) FIG. 3: Inhibition assay performed with compounds 1, 2, 3, 4, 5, 6, 8 against a) 66 pM human FAP and b) 66 pM murine FAP. The concentration of substrate (Z-Gly-Pro-AMC) was kept constant=20 μM. The assay was incubated for 48 hours at 22.6° C. Error bars display SEM.
(§4) FIG. 4: a) Inhibition assay performed with compounds 8, 9 and 10 against 66 pM human FAP. The assay was incubated for 17 hours at 25° C. b) Inhibition assay performed with compound 9 against 66 pM murine FAP. The assay was incubated for 17 hours at 25° C. In both assays the concentration of substrate (Z-Gly-Pro-AMC) was kept constant=20 μM. Error bars display SEM.
FIG. 19. A: Chemical structures and corresponding IC50(hFAP) values of compounds according to the present invention. B: Chemical structures and corresponding IC50 values of compounds where the propargyl moiety at position AA^2 was replaced by different groups (Me, iPr, Bn) using both R and S stereoisomers. The sites of modification have been highlighted with arrows. Each measurement was performed with a FAP concentration lower than the expected IC50. Depending on FAP concentration, the fluorescence was measured between 10 minutes and 48 h (at room temperature) after the addition of the fluorogenic substrate (Z-Gly-Pro-AMC). IC50 values and standard errors were calculated using “[Inhibitor] vs. response—Variable slope (four parameters)” fitting (Graphpad Prism). […] By introducing the quinoline-based moiety, a single-digit nanomolar inhibitor was obtained. […] The replacement of propargylglycine with S-phenylalanine improved potency of the lead compound of additional ˜2-folds (compound 14).

The target of a further assay is murine FAP (Mus musculus (Mouse), UniProt P97321). Described as above. It is filed as biochemical. As to conditions: substrate Z-Gly-Pro-AMC 20 μM; 66 pM murine FAP; room temperature. The procedure: as §1, §2, §3, §4
Another assay has as its system FAP negative SKRC-52.wt. Description: Flow cytometry (FACS) binding. Format: cell-based. To be noted: 100 nM; 1 h on ice. The procedure:
(§5) Cells were detached from culture plates using Accutase cell detachment solution, counted and suspended to a final concentration of 1.25×10≢cell/100 μL in a solution of FACS buffer (1% bovine serum albumin, 2 mM EDTA, in 500 mL PBS pH 7.4). Aliquots of 2.5×10≡cells (200 μL) were spun down and resuspended in solutions of compound 36 and compound 29 (100 μL; 100 nM) in FACS buffer and incubated on ice in the dark for 1 h. Cells were washed once with 200 μl FACS (1% v/v)/PBS (pH=7.4), spun down, resuspended in a solution of FACS buffer and analyzed via a BD LSRFortessa™ Cell Analyzer (Biosciences). FlowJo Version 8.7 (Treestar) was used for the data analysis and visualization.
In general terms: In flow cytometry, cells or beads pass a laser one at a time.

Assay [1] concerns FAP positive SKRC-52.hFAP. Description: Flow cytometry (FACS) binding. Format: cell-based. To be noted: 100 nM; 1 h on ice. As to the method:
as §5

A further assay has as its system SK-RC-52.hFAP cells. Description: Confocal microscopy on living cells. To be noted: 150 nM; imaged 1 h after incubation. Format: cell-based. As to the method: SK—RC-52.hFAP and SK—RC-52.wt cells were seeded into g-Slide 8 Well high Glass Bottom at a density of 5×10^4 cells per well in 300 μL of RPMI medium supplemented with 10% fetal calf serum (FCS), AA, and Hepes (10 mM) and allowed to grow overnight under standard culture conditions. Hoechst 33342 nuclear dye was used to stain nuclear structures. The culture medium was replaced with fresh medium containing either compound 36 or 29 (150 nM). Randomly selected colonies were imaged 1 h after incubation on the confocal microscope Zeiss LSM 880 airyscan (Zeiss). Fiji was used for the data processing and visualization.

The mark [2] stands for this setting: substrate Z-Gly-Pro-AMC 20 μM, FAP concentration lower than expected IC50 (66 pM in FIG. 3, 4), room temperature, read-out: IC50 vs human FAP.

Sequence of human FAP (Q12884 whole entry): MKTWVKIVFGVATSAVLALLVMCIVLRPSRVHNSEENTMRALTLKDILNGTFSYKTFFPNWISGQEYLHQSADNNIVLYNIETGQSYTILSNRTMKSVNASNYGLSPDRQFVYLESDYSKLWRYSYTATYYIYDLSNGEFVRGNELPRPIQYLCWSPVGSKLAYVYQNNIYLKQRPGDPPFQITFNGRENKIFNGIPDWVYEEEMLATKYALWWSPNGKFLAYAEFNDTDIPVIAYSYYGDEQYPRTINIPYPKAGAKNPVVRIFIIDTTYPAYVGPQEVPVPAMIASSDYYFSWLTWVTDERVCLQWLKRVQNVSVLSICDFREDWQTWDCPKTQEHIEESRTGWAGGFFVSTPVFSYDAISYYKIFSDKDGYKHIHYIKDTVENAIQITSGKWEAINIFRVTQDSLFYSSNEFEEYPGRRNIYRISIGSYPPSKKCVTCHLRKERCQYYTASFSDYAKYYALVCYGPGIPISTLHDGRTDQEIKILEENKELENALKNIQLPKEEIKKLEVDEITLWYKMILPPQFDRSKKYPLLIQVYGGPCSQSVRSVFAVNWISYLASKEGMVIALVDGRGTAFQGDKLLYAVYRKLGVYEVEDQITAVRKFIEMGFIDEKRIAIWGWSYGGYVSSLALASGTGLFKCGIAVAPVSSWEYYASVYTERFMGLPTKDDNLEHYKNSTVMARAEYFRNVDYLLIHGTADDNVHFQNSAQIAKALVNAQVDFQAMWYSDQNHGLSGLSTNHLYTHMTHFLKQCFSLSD
Sequence of murine FAP (P97321 whole entry): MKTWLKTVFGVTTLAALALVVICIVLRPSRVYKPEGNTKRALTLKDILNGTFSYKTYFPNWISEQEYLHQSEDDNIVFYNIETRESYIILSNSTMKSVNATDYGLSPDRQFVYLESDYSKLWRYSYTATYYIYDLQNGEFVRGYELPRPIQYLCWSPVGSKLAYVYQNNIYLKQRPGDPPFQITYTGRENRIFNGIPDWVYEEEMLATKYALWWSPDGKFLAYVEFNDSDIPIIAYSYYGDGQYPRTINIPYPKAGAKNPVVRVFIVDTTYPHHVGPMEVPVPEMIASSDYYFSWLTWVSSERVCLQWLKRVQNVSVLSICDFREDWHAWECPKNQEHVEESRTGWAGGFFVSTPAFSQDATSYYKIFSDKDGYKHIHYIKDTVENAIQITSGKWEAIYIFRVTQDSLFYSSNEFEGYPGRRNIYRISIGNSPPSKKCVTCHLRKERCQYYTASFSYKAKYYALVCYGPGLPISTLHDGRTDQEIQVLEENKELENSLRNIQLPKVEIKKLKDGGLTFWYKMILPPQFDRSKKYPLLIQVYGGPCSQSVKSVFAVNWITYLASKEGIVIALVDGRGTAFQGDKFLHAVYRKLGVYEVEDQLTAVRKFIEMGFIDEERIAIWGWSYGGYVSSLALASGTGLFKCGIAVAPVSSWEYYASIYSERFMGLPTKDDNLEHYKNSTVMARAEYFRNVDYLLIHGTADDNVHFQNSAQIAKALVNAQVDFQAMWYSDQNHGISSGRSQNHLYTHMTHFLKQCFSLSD

Broadly, the IC50 is the concentration that inhibits the measured activity by half. Turning to `N#C[C@@H]1CC(F)(F)CN1C(=O)CCC(=O)O` [Compound 1], the IC50 on human FAP (setting [2]) stood at 249000 nM; at murine FAP, 200000 nM.
The like results for `C#CC[C@@H](NC(=O)[C@H](CCCNC(=N)N(C)C)NC(=O)c1coc(CNC(=O)CCC(=O)N2CC(F)(F)C[C@H]2C#N)c1)C(=O)N[C@@H](CCCCN)C(=O)O` [Compound 3] were, in that order, 60 nM and 38.4 nM.
As for `CN(C)C(=N)NCCC[C@H](NC(=O)c1coc(CNC(=O)CCC(=O)N2CC(F)(F)C[C@H]2C#N)c1)C(=O)N[C@@H](CCCCN)C(=O)O` [Compound 4], the “FAP binding relative to the parent compound (in words)” value at human FAP is reported as “significant improvement”. Further, the IC50 at human FAP (setting [2]) was 178 nM; against murine FAP, 154 nM.
`C#CC[C@H](NC(=O)c1coc(CNC(=O)CCC(=O)N2CC(F)(F)C[C@H]2C#N)c1)C(=O)N[C@@H](CCCCN)C(=O)O` [Compound 5]: the IC50 against murine FAP turned out to be 3900 nM.
As to `C#CC[C@H](NC(=O)CCC(=O)N1CC(F)(F)C[C@H]1C#N)C(=O)N[C@@H](CCCCN)C(=O)O` [Compound 6], the “FAP binding relative to the parent compound (in words)” value on human FAP is reported as “worsening”. Also, the IC50 at human FAP (setting [2]) turned out to be 17200 nM; at murine FAP, 22700 nM.
As to `N#C[C@@H]1CC(F)(F)CN1C(=O)CNC(=O)c1ccnc2c(NC(=O)CCC(=O)O)cccc12` [Compound 8, (S)-4-((4-((2-(2-cyano-4,4-difluoropyrrolidin-1-yl)-2-oxoethyl)carbamoyl)quinolin-8-yl)amino)-4-oxobutanoic acid, reference compound], the 50% inhibitory concentration (IC50) at human FAP (22.6° C., [hFAP] 2.5 nM to 39 pM, substrate 20 μM, read-out: IC50 values from fitted curves, inhibition assay performed overtime) is 6 to 21 nM; at human FAP (setting [2]) it was 10.9 nM; on murine FAP it was 16.1 nM.
In the case of `C#CC[C@H](NC(=O)[C@H](CCCNC(=N)N(C)C)NC(=O)CCC(=O)Nc1cccc2c(C(=O)NCC(=O)N3CC(F)(F)C[C@H]3C#N)ccnc12)C(=O)N[C@@H](CCCCN)C(=O)O` [Compound 9], the “FAP inhibition potency (in words)” value on human FAP is listed as “sub-nanomolar range; also recorded: increased strongly”. Moreover, the IC50 was found to be 0.439 nM on human FAP (setting [2]) and 0.115 nM at murine FAP.
In the case of `C#CC[C@H](NC(=O)CCC(=O)Nc1cccc2c(C(=O)NCC(=O)N3CC(F)(F)C[C@H]3C#N)ccnc12)C(=O)N[C@@H](CCCCN)C(=O)O` [Compound 10], the IC50 at human FAP (setting [2]) amounted to 4.38 nM.
As for `CN(C)C(=N)NCCC[C@H](NC(=O)CCC(=O)Nc1cccc2c(C(=O)NCC(=O)N3CC(F)(F)C[C@H]3C#N)ccnc12)C(=O)N[C@@H](Cc1ccccc1)C(=O)N[C@@H](CCCCN)C(=O)O` [Compound 11], the “FAP inhibition potency (in words)” value at human FAP was “picomolar range”. Further, on human FAP (setting [2]), the IC50 amounted to 0.156 nM.
`N#C[C@@H]1CC(F)(F)CN1C(=O)CNC(=O)c1ccnc2c(NC(=O)CCC(=O)N[C@@H](CCCNC(=N)N)C(=O)N[C@@H](Cc3ccccc3)C(=O)N[C@@H](CCCCN)C(=O)O)cccc12` [Compound 14]: on human FAP (L-arginine building block (R=H)), the “improvement of potency over the lead compound on replacing propargylglycine with S-phenylalanine” value was ~2 folds. Also, the IC50 at human FAP (setting [2]) came out at 0.353 nM.
For the compound `N#C[C@@H]1CC(F)(F)CN1C(=O)CNC(=O)c1ccnc2c(NC(=O)CCC(=O)N[C@@H](CCCNC(=N)N)C(=O)N[C@H](Cc3ccccc3)C(=O)N[C@@H](CCCCN)C(=O)O)cccc12` [Compound 15], the IC50 at human FAP (setting [2]) stood at 604 nM.
Consider `CC(C)[C@H](NC(=O)[C@H](CCCNC(=N)N)NC(=O)CCC(=O)Nc1cccc2c(C(=O)NCC(=O)N3CC(F)(F)C[C@H]3C#N)ccnc12)C(=O)N[C@@H](CCCCN)C(=O)O` [Compound 16], for which the IC50 on human FAP (setting [2]) came to 1.66 nM.
Same read-out and setting: under `CC(C)[C@@H](NC(=O)[C@H](CCCNC(=N)N)NC(=O)CCC(=O)Nc1cccc2c(C(=O)NCC(=O)N3CC(F)(F)C[C@H]3C#N)ccnc12)C(=O)N[C@@H](CCCCN)C(=O)O` [Compound 17] stands 0.697 nM.
Same read-out and setting: next, `C[C@H](NC(=O)[C@H](CCCNC(=N)N)NC(=O)CCC(=O)Nc1cccc2c(C(=O)NCC(=O)N3CC(F)(F)C[C@H]3C#N)ccnc12)C(=O)N[C@@H](CCCCN)C(=O)O` [Compound 18]: 1.54 nM; `C[C@@H](NC(=O)[C@H](CCCNC(=N)N)NC(=O)CCC(=O)Nc1cccc2c(C(=O)NCC(=O)N3CC(F)(F)C[C@H]3C#N)ccnc12)C(=O)N[C@@H](CCCCN)C(=O)O` [Compound 19]: 0.991 nM.
Same read-out and setting: next, `CN(C)C(=N)NCCC[C@H](NC(=O)CCC(=O)Nc1cccc2c(C(=O)NCC(=O)N3CC(F)(F)C[C@H]3C#N)ccnc12)C(=O)N[C@@H](Cc1ccccc1)C(=O)NCCNC(=O)OC(C)(C)C` [Compound 26]: 0.0748 nM; `CN(C)C(=N)NCCC[C@H](NC(=O)CCC(=O)Nc1cccc2c(C(=O)NCC(=O)N3CC(F)(F)C[C@H]3C#N)ccnc12)C(=O)N[C@@H](Cc1ccccc1)C(=O)NCCN` [Compound 27]: 1.02 nM.
Take `CN(C)C(=N)NCCC[C@H](NC(=O)CCC(=O)Nc1cccc2c(C(=O)NCC(=O)N3CC(F)(F)C[C@H]3C#N)ccnc12)C(=O)N[C@@H](Cc1ccccc1)C(=O)NCCNC(=S)Nc1ccc2c(c1)C(=O)OC21c2ccc(O)cc2Oc2cc(O)ccc21` [Compound 29]: in the assay on FAP negative SKRC-52.wt, the “binding on wild-type (FAP-negative) cells, flow cytometry” value is “no binding”. For the same compound, the “staining of FAP-positive cells, flow cytometry” value in assay [1] was “stained”. Also, in the assay with SK-RC-52.hFAP cells, the “internalization, confocal microscopy” value was “Internalization was not observed” and the “staining pattern, confocal microscopy” value is on record as “Membrane-specific staining”.
In the same order, the values of `C#CC[C@H](NC(=O)[C@H](CCCNC(=N)N(C)C)NC(=O)c1coc(CNC(=O)CCC(=O)N2CC(F)(F)C[C@H]2C#N)c1)C(=O)N[C@@H](CCCCNC(=S)Nc1ccc2c(c1)C(=O)OC21c2ccc(O)cc2Oc2cc(O)ccc21)C(=O)O` [Compound 36] are “no binding”, “stained”, “Internalization was not observed” and “Membrane-specific staining”.
As to `N#C[C@@H]1CC(F)(F)CN1C(=O)CN` [reference compound], the IC50 on human FAP (setting [2]) was found to be 24100 nM.
